Source: patent US7576053B2, “Methods and compositions for treating degenerative bone disorders” (Rigel Pharmaceuticals, Inc., priority 2005, dated 2009)

How the values were obtained:
Format in all cases: in vivo
[1] = test system: rat collagen induced arthritis (CIA) model; experiment: Rat collagen induced arthritis (CIA) model, hindlimb radiographs scored blindly; settings: b.i.d., 18 days of treatment
Source text: Data are the means±standard error, where n=13 per group, except for naïve (n=4). Radiographs of hindlimbs were obtained at the conclusion of the study and scored blindly. […] To examine effect of Syk inhibitor 2,4-pyrimidinediamine compound in preventing bone degeneration, a rat collagen induced arthritis model was used (see, e.g., WO 2004/014382, incorporated herein by reference). Rats were immunized with bovine collagen II on day 0 and boosted on day 7. […] Animals were subsequently treated b.i.d. with inhibitor compound or vehicle alone. After 18 days of treatment, hind paw bone structure and integrity were evaluated by X-rays, histopathology, and serum bone marker COMP.

[2] = test system: cartilage oligometrix matrix protein (COMP); experiment: Rat CIA model, serum bone marker COMP; settings: FIG. 4
Experimental: (§1) To examine effect of Syk inhibitor 2,4-pyrimidinediamine compound in preventing bone degeneration, a rat collagen induced arthritis model was used (see, e.g., WO 2004/014382, incorporated herein by reference). Rats were immunized with bovine collagen II on day 0 and boosted on day 7. […] Animals were subsequently treated b.i.d. with inhibitor compound or vehicle alone. After 18 days of treatment, hind paw bone structure and integrity were evaluated by X-rays, histopathology, and serum bone marker COMP.

[3] = test system: rat collagen induced arthritis (CIA) model; experiment: Rat CIA model, histopathology of hind paw bone sections (safranin-O)
Source text: as §1, with “Upper left—naïve rat; upper right—vehicle rat; lower left—vehicle rat; lower right—compound 1007 treated rat. Micrographs are safranin-O stained sections of hind ankle paws of CIA rats, magnification 40×. To” for “To”

Structure (SMILES): COc1cc(Nc2ncc(F)c(Nc3ccc4c(n3)NC(=O)C(C)(C)O4)n2)cc(OC)c1OC [compound 1007, N4-(2,2-dimethyl-3-oxo-4H-5-pyrid[1,4]oxazin-6-yl)-5-fluoro-N2-(3,4,5-trimethoxyphenyl)-2,4-pyrimidinediamine]
- bone erosion (radiograph score of hind paws) ([1]; 10 mg/kg, p<0.05): significant reduction in bone erosion
- bone erosion (radiograph score of hind paws) ([1]; 30 mg/kg, p<0.001): significant reduction in bone erosion
- serum levels of cartilage oligometrix matrix protein (COMP), a marker for collagen destruction [2]: reduction
- severity of bone destruction (histopathological assessment of bone sections) ([3]; FIG. 2): significant reduction in severity of bone destruction
- bone erosion (safranin-O stained sections of hind ankle paws) ([3]; FIG. 3, magnification 40x): reduction
- osteoclast activity (safranin-O stained sections of hind ankle paws) ([3]; FIG. 3, magnification 40x): reduction
- pannus formation (safranin-O stained sections of hind ankle paws) ([3]; FIG. 3, magnification 40x): reduction
